Compound: CC(=O)c1c(C)c2cnc(Nc3ccc(N4CCNCC4)cn3)nc2n(C2CCCC2)c1=O [Palbociclib] + CC(C)C[C@H](NC(=O)[C@H](Cc1ccccc1)NC(=O)c1cnccn1)B(O)O [Bortezomib] (partner 0.002 µM)
Assay: relative viability (nuclei count vs DMSO), 5 days (fraction); higher = more cells survive
How it was run: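 Lung cancer cell lines in 1536-well plates got either a single drug or a fixed anchor-drug dose together with five library-drug doses (not always all listed) in √10 steps, by pin tool, on the day after seeding. Nuclei were counted after 5 days, and relative viability is the treated-to-vehicle ratio of nuclei counts. Values are medians of duplicate plates.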

Cell Line	relative viability (first compound 0.01 µM)	relative viability (first compound 0.03162 µM)	relative viability (first compound 0.1 µM)	relative viability (first compound 0.3162 µM)	relative viability (first compound 1 µM)
NCI-H596	1.06	0.984	0.998	1.01	1.04
NCI-H1975	0.356	0.356	0.349	0.406	0.366
EKVX	1.12	0.916	1.04	0.989	0.461
NCI-H460	1.11	0.937	0.909	0.745	0.172
NCI-H23	1.12	–	0.87	0.703	0.553
NCI-H2009	0.987	0.867	0.68	0.679	0.219
NCI-H2405	0.973	0.769	0.847	1.01	0.597
HOP-62	0.418	–	0.741	0.612	0.57
NCI-H1650	0.229	0.227	0.176	0.187	0.215
LCLC-103H	1.2	0.957	0.967	0.87	0.649
LU99A	0.976	0.935	1	1.09	0.67
201T	1.16	0.954	1.04	0.946	0.709
NCI-H1563	0.824	0.98	0.869	0.796	0.577
NCI-H2347	1.01	–	0.929	–	0.684
UMC-11	0.934	0.625	0.466	0.292	0.238
NCI-H661	0.874	0.584	0.588	0.649	0.521
NCI-H3122	1.04	1.02	0.919	0.745	0.513
HCC-78	0.385	0.451	0.366	0.454	0.406
PC-3 [JPC-3]	0.776	0.701	0.706	0.665	0.545
HCC-15	1.1	–	0.929	0.833	0.737
NCI-H1755	0.977	0.761	0.803	0.733	0.483
COR-L23	0.952	0.795	0.831	0.721	0.344
NCI-H838	0.725	0.8	0.67	0.694	0.275

Cell Line	relative viability (first compound 0.01 µM)	relative viability (first compound 0.03162 µM)	relative viability (first compound 0.1 µM)	relative viability (first compound 0.3162 µM)	relative viability (first compound 1 µM)
RERF-LC-KJ	1.17	1.12	1.11	1.04	1.15
NCI-H1299	1	0.871	0.925	0.873	0.72
NCI-H1666	0.924	0.787	0.709	0.599	0.429
COR-L 105	0.759	0.435	0.486	0.504	0.363
NCI-H1651	1	0.9	0.981	0.915	0.8
NCI-H441	–	0.365	0.446	0.558	0.367
Calu-6	0.926	0.95	0.727	0.89	0.412
H3255	0.912	0.789	0.624	0.641	0.317
HARA	1.07	1.02	1	0.874	0.389
NCI-H647	0.963	0.814	0.696	0.851	0.472
NCI-H2228	1.08	0.871	0.88	0.875	0.89
LOU-NH91	0.458	0.439	0.441	0.446	0.489
A-427	0.933	0.877	0.827	0.832	0.546
NCI-H1993	1.23	0.905	0.969	0.763	0.814
NCI-H650	0.912	–	0.61	0.637	0.377
LXF-289	0.997	0.933	0.971	0.852	0.677
BEN	0.94	0.728	0.849	0.674	0.353
NCI-H2087	0.803	0.81	0.702	0.485	0.372
NCI-H727	0.963	0.649	0.491	0.465	0.469
EBC-1	0.468	0.445	0.353	0.281	0.193
LCLC-97TM1	0.729	0.514	0.396	0.319	0.138
PC-14	1.02	0.863	0.751	0.655	0.57
NCI-H520	0.496	0.496	0.35	0.403	0.236

Cell Line	relative viability (first compound 0.01 µM)	relative viability (first compound 0.03162 µM)	relative viability (first compound 0.1 µM)	relative viability (first compound 0.3162 µM)	relative viability (first compound 1 µM)
LC-2-ad	1.03	–	0.779	0.704	0.469
NCI-H1915	1.02	0.684	0.921	0.947	0.778
EPLC-272H	0.836	–	0.792	0.883	0.512
NCI-H322M	1.27	1.07	1.07	1.01	0.785
NCI-H1437	0.525	0.533	0.442	0.408	0.318
ChaGo-K-1	1.11	0.828	1.02	1.14	1.11
NCI-H1703	0.266	0.23	0.197	0.226	0.188
NCI-H1734	0.896	0.532	0.661	0.619	0.409
NCI-H2023	0.96	0.279	0.705	0.654	0.391
EMC-BAC-2	1.09	0.812	0.905	0.785	0.665
NCI-H2126	1.1	0.91	0.925	0.801	0.599
HCC-44	0.824	0.804	0.844	0.836	0.911
HCC-366	0.953	–	0.965	0.975	0.616
SW 1573	1.15	0.928	0.985	0.842	0.506
NCI-H1792	0.934	0.875	0.917	0.852	0.711
NCI-H1355	1.14	–	1.17	1.01	0.723
CAL-12T	1.04	–	–	0.674	0.405
HCC-827	1.09	0.804	0.954	0.948	0.857
ABC-1	0.323	0.32	0.232	0.292	0.394
SK-LU-1	1.47	–	0.92	0.912	0.58
NCI-H2085	0.991	0.99	0.969	0.871	0.543

From the supplement of paper PMC10307832
